According to patent publication US20230203471A1, “METHOD AND PLATFORM FOR DISRUPTING INTRACELLULAR MICROTUBULES” (National Tsing Hua University, priority 2021, published 2023):

Tests used:
[1] = test system: intracellular microtubules in HeLa cells; assay: Live-cell imaging of MT disruption (MT filament area) in transfected HeLa cells; assay type: cell-based; conditions: nocodazole 3.3 µM
[2] = test system: intracellular microtubules in HeLa cells; assay: as above; assay type: cell-based
Experimental: The procedures of live-cell imaging are as follows. Live transfected cells cultured on poly(d-lysine)-coated glass coverslips (Hecht Assistent) were treated with either 100 nM rapamycin for rapid induction of protein dimerization and translocation or MT-targeting agents (10 µM nocodazole or 500 µM colchicine) during imaging. Live-cell imaging was conducted on a Nikon T1 inverted fluorescence microscope (Nikon) with a 60× oil objective (Nikon), a Prime camera (Photometrics), and 37° C., 5% CO2 heat stage (Live Cell Instrument). Rapid recruitment of proteins of interest (POIs) was imaged at 5- or 10-sec intervals, whereas the process of MT disruption was imaged at 1-min intervals. Images were obtained using Nikon NIS-Elements AR software and processed with Huygens Deconvolution Software (Scientific Volume Imaging). Image analysis was mainly performed with Nikon NIS-Elements AR software.
The procedures of measurement of MT filament area are as follows. The MT filaments in living cells were labeled with EMTB-CFP-FRB and imaged in real time (RAW image). The rolling ball correction was used to remove the cytosol background from the RAW images, which was carried out with the Nikon NIS-Elements AR software. Images were processed to generate the binary MT filament pattern via the Otsu threshold and analyzed by Fiji software.
FIGS. 2D and 2E show rapidly recruiting engineered spastins onto MTs. […] The top three layers are cells that simultaneously express EMTB-CFP-FRB and dNSpastin3Q-YFP-FKBP. The lower three layers are cells that simultaneously express EMTB-CFP-FRB and dNSpastin-YFP-FKBP-C2Lact. The color bar on the right indicates the brightness value represented by the color of the FRET signal. […] Data are shown as the mean ± S.E.M. It was noteworthy that MT disruption triggered by dNSpastin3Q-YFP-FKBP upon rapamycin treatment (T½ = 11.05 ± 1.52 min) was much faster than that of dNSpastin-YFP-FKBP-C2Lact upon rapamycin treatment (T½ = 53.08 ± 8.08 min), and treatment of two common MTAs, nocodazole (10 µM; T½ = 54.02 ± 10.29 min), colchicine (500 µM; T½ = 94.28 ± 8.63 min; see FIGS. 2F to 2J). […] In FIG. 2H, HeLa cells transfected with the indicated constructs were treated with nocodazole (Noc)([…], a type of MTA), colchicine (Col)(500 µM, a type of MTA), or rapamycin (Rapa)(100 nM); scale bar, 10 µm. […] Data are shown as the mean ± S.E.M. Student’s t-tests were performed, with the resulting p-values indicated.

**Q.** How did the “time required to disrupt half of the intracellular microtubules” value [1] turn out when `COC(=O)Nc1nc2ccc(C(=O)c3cccs3)cc2[nH]1` [nocodazole] was run?
**A.** The value was 106.86 ± 12.11 min.

**Q.** What about the “microtubules removed within one hour” value ([2]; 3.3 µM nocodazole) of the same compound?
**A.** The value was 31%.

**Q.** What about the “T½ of MT disruption” value ([2]; nocodazole 10 µM, HeLa cells) of the same compound?
**A.** Its value is 54.02 ± 10.29 min.
